The subject of the assay is Herpes simplex virus (HSV) ribonucleotide reductase (RR) enzyme. In words: Inhibitory effect was evaluated on Herpes simplex virus (HSV) ribonucleotide reductase (RR) enzyme.

For `CC(C)C[C@@H](NC(=O)[C@@H](CC(=O)O)NC(=O)[C@H](CC(=O)N1CCCC1)NC(=O)[C@H](NC(=O)NC1[C@@H](C)CCC[C@@H]1C)C(C)C)C(=O)O`, the IC50 – broadly, the midpoint of a concentration-inhibition curve – came to 20 nM.
